Results as given in patent publication US20250255851A1, “SOLID FORMS OF AN ALDOSTERONE SYNTHASE INHIBITOR” (Boehringer Ingelheim International GmbH, priority 2024, published 2025).

Tests used:
Assay type in all cases: physicochemical
[1] = Biopharmaceutics Classification System (BCS) classification
[2] = Dynamic Vapor Sorption (DVS) water sorption isotherm
Experimental: Water sorption isotherms are determined using a dynamic vapor sorption system (Advantage 1, DVS, London, UKDVS Intrinsic Plus, Surface Measurement Systems, Allentown, PA). Approximately 5-10 mg of solid is weighed into a tared aluminum pan. […] Equilibration criteria are dm/dt of 0.002% over 5 minutes or 360 minutes at a specified % RH. Each sample is equilibrated at each RH step for at least 60 min, and equilibrium is assumed if weight increase is less than 0.1% within one minute, and the maximum duration on each RH is 6 hours. Therefore, each sample is held at a given RH for 1 to 6 hours depending on how fast the equilibrium is reached. Exemplary DVS of the compounds of the invention are found in the Figures.

[3] = Storage stability of solid form samples at controlled temperature and relative humidity; conditions: at least 9 months at 25° and 60% and at least 6 months at 40° and 75% relative humidity; both storage conditions
Experimental: Samples of Form I were maintained for at least 9 months at 25°, and 60% and at least 6 months at 40° and 75% relative humidity.
Samples of Form X were maintained for at least 9 months at 25°, and 60% and at least 6 months at 40° and 75% relative humidity.

[4] = Stability of crystalline form (resistance to change in crystalline form)
Source text: However, these solvate of Compound 1 are generally not as stable (for example, resistant to change in crystalline form) as Form I and Form X. This lack of stability generally requires special processing and storage conditions for the solvates, thus making them less desirable as a component of a solid form of a pharmaceutical preparation. […] Alternatively, processes for preparing Compound 1 may involve formation of a crystalline solvate form of Compound 1 as an intermediate step prior to final preparation of Form I or Form X. For example, the purification and/or isolation of the crystalline solvates of Compound 1 may be used to remove impurities prior to conversion of the crystalline solvates to Form I and/or Form X using methods described herein.
Despite the lower stability of the other crystalline forms of Compound 1 (Forms II, Ill, IV, VI, VII and IX), the other crystalline forms are still useful as intermediates to prepare Form I and/or Form X as described herein.

C[C@]1(CO)Cc2ncn(-c3ccc(C#N)c(Cl)c3)c2C(=O)O1 [Form I, 2-chloro-4-[(6R)-6-(hydroxymethyl)-6-methyl-4-oxo-3H,4H,6H,7H-pyrano[3,4-d]imidazol-3-yl]benzonitrile]
BCS class [1]: class 1
water uptake (DVS) ([2]; at 95% Rh during the second cycle, 25° C.): about 0.4 % (wt.)
hygroscopicity (from DVS plot) ([2]; second DVS cycle): non-hygroscopic
impurity levels after storage [3]: no increase in impurity levels
particle size distribution after storage [3]: no change in particle sized distribution
solid form after storage [3]: no change in solid form
water content after storage [3]: no increase in water content
relative stability of crystalline form (resistance to change in form) ([4]; compared with Form II, Form III and the crystalline solvate forms): more stable

C[C@]1(CO)Cc2ncn(-c3ccc(C#N)c(Cl)c3)c2C(=O)O1 [Form VI, 2-chloro-4-[(6R)-6-(hydroxymethyl)-6-methyl-4-oxo-3H,4H,6H,7H-pyrano[3,4-d]imidazol-3-yl]benzonitrile]
solid form transformation during DVS (solvent replaced by water) ([2]; DVS cycles, 25° C.): transformed to a mixture of Form I and Form III
mass stability over humidity range (DVS profile) ([2]; sharp descending step when 80% RH was reached): stable over a wide humidity range from RH=0 to the 80%

C[C@]1(CO)Cc2ncn(-c3ccc(C#N)c(Cl)c3)c2C(=O)O1 [Form IV, 2-chloro-4-[(6R)-6-(hydroxymethyl)-6-methyl-4-oxo-3H,4H,6H,7H-pyrano[3,4-d]imidazol-3-yl]benzonitrile]
conversion of crystalline form ([4]; at elevated temperature and/or under high humidity): convert to Form I and/or Form X

C[C@]1(CO)Cc2ncn(-c3ccc(C#N)c(Cl)c3)c2C(=O)O1 [Form X, 2-chloro-4-[(6R)-6-(hydroxymethyl)-6-methyl-4-oxo-3H,4H,6H,7H-pyrano[3,4-d]imidazol-3-yl]benzonitrile]
water uptake (DVS) ([2]; at 90% Rh during the second cycle, 25° C.): about 0.07%
